Test results taken from patent publication US8716316B2 (Hoffmann-La Roche Inc., priority 2009, dated 2014).

Target: T1, human mGlu5a receptor (Homo sapiens, UniProt P41594)
T1 construct: expressed in transfected cells
Assay: Intracellular Ca2+ mobilization assay
Type: cell-based
Settings: for Emax: HEK293, read-out: Efficacy (%); for EC50: HEK-293 cells stably transfected with human mGlu5a receptor, pre-incubation 10-30 min with test compound, then L-glutamate at EC20 (typically around 80 μM), Fluo-4AM fluorescence, read-out: EC50 (nM) mGluR5 PAM
Experimental: A monoclonal HEK-293 cell line stably transfected with a cDNA encoding for the human mGlu5a receptor was generated; for the work with mGlu5 Positive Allosteric Modulators (PAMs), a cell line with low receptor expression levels and low constitutive receptor activity was selected to allow the differentiation of agonistic versus PAM activity. Cells were cultured according to standard protocols (Freshney, 2000) in Dulbecco's Modified Eagle Medium with high glucose supplemented with 1 mM glutamine, 10% (vol/vol) heat-inactivated bovine calf serum, Penicillin/Streptomycin, 50 μg/ml hygromycin and 15 μg/ml blasticidin (all cell culture reagents and antibiotics from Invitrogen, Basel, Switzerland).
About 24 hrs before an experiment, 5×10^4 cells/well were seeded in poly-D-lysine coated, black/clear-bottomed 96-well plates. The cells were loaded with 2.5 μM Fluo-4AM in loading buffer (1×HBSS, 20 mM HEPES) for 1 hr at 37° C. and washed five times with loading buffer. The cells were transferred into a Functional Drug Screening System 7000 (Hamamatsu, Paris, France), and 11 half logarithmic serial dilutions of test compound at 37° C. were added and the cells were incubated for 10-30 min. with on-line recording of fluorescence. Following this pre-incubation step, the agonist L-glutamate was added to the cells at a concentration corresponding to EC20 (typically around 80 μM) with on-line recording of fluorescence; in order to account for day-to-day variations in the responsiveness of cells, the EC20 of glutamate was determined immediately ahead of each experiment by recording of a full dose-response curve of glutamate.
Responses were measured as peak increase in fluorescence minus basal (i.e. fluorescence without addition of L-glutamate), normalized to the maximal stimulatory effect obtained with saturating concentrations of L-glutamate. Graphs were plotted with the % maximal stimulatory using XLfit, a curve fitting program that iteratively plots the data using Levenburg Marquardt algorithm. The single site competition analysis equation used was y=A+((B−A)/(1+((x/C)D))), where y is the % maximal stimulatory effect, A is the minimum y, B is the maximum y, C is the EC50, x is the log 10 of the concentration of the competing compound and D is the slope of the curve (the Hill Coefficient). From these curves the EC50 (concentration at which half maximal stimulation was achieved), the Hill coefficient as well as the maximal response in % of the maximal stimulatory effect obtained with saturating concentrations of L-glutamate were calculated.
A depression of the signal observed after addition of the EC20 concentration of L-glutamate was indicative of an inhibitory activity of the test compound.

[1] = maximal response in % of the maximal stimulatory effect obtained with saturating concentrations of L-glutamate, HEK-293 human mGlu5a cells, L-glutamate at EC20

T1 sequence (P41594 21-1180 isoform P41594-2 limits assumed): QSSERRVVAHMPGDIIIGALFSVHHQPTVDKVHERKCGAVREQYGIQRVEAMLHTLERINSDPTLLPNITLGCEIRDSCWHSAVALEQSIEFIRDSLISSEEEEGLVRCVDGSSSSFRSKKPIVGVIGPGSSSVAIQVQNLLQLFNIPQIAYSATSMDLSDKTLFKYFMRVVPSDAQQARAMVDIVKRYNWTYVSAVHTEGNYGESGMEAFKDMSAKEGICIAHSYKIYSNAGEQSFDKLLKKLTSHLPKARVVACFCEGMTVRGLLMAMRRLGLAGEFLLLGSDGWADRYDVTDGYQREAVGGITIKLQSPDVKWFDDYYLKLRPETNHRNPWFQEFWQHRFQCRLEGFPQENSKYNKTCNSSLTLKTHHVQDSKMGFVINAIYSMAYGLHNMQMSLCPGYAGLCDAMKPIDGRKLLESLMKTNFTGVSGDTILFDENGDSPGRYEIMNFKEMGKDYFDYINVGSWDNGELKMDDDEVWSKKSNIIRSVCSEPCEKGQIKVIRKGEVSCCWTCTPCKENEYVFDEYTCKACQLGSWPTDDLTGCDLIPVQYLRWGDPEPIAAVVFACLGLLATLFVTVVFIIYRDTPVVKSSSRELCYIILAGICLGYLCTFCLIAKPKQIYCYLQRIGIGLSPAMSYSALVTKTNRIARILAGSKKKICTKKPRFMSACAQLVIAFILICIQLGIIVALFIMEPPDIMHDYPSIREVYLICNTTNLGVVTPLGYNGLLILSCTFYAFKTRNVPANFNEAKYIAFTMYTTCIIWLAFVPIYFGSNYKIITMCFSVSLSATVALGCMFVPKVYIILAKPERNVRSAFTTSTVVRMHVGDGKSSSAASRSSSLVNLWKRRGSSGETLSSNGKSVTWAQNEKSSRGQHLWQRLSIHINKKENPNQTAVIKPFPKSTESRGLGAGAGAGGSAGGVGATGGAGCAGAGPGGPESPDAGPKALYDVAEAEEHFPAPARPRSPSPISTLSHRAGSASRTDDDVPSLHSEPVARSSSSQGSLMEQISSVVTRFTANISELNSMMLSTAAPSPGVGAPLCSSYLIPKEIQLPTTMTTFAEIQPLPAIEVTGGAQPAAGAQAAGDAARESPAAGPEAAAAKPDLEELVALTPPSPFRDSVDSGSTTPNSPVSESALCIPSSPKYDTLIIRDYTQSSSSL

Emax [1] [%]	EC50 [nM]	Efficacy (%) [1] [%]	Structure (SMILES)
105	345	–	COC1CCCC(OC)C1Nc1ncc(C#Cc2ccccc2)cn1 (mixture of isomers) [Example 5, (2,6-dimethoxy-cyclohexyl)-(5-phenylethynyl-pyrimidin-2-yl)-amine]
72	340	–	OC1CCCCC1Nc1ncc(C#Cc2ccccc2)cn1 (mixture of isomers) [Example 10, 2-(5-phenylethynyl-pyrimidin-2-ylamino)-cyclohexanol]
78	322	–	OC1CCC(Nc2ncc(C#Cc3ccccc3)cn2)C1 (mixture of isomers) [Example 11, 3-(5-phenylethynyl-pyrimidin-2-ylamino)-cyclopentanol]
80	560	–	OC1CCCC1Nc1ncc(C#Cc2ccccc2)cn1 (mixture of isomers) [Example 12, 2-(5-phenylethynyl-pyrimidin-2-ylamino)-cyclopentanol]
89	172	–	CC1(C)CC(Nc2ncc(C#Cc3ccccc3)cn2)CCO1 (racemic) [Example 3, rac-(2,2-Dimethyl-tetrahydro-pyran-4-yl)-(5-phenylethynyl-pyrimidin-2-yl)-amine]
113	195	–	C(#Cc1cnc(N[C@H]2C[C@@H]3CC[C@H]2O3)nc1)c1ccccc1 (racemic) [Example 4, rac-7-Oxa-bicyclo[2.2.1]hept-2-yl-(5-phenylethynyl-pyrimidin-2-yl)-amine]
113	324	–	CC1(C)CC(Nc2ncc(C#Cc3ccccc3)cn2)CCC1O (racemic) [Example 16, 2,2-Dimethyl-4-(5-phenylethynyl-pyrimidin-2-ylamino)-cyclohexanol]
121	168	–	OC1CCC(Oc2ncc(C#Cc3ccccc3)cn2)CC1 (racemic) [Example 22, rac-4-(5-Phenylethynyl-pyrimidin-2-yloxy)-cyclohexanol]
90	200	–	OC1CCC(Oc2ncc(C#Cc3ccccc3)cc2F)CC1 (racemic) [Example 27, rac-4-(3-Fluoro-5-phenylethynyl-pyridin-2-yloxy)-cyclohexanol]
120	93	–	CC1CCN(Cc2ccc(C#Cc3ccccc3)cn2)C1=O (racemic) [Example 39, rac-3-Methyl-1-(5-phenylethynyl-pyridin-2-ylmethyl)-pyrrolidin-2-one]
59	94	–	CC(c1ccc(C#Cc2ccccc2)cn1)N1CCOC1=O (racemic) [Example 41, rac-3-[1-(5-Phenylethynyl-pyridin-2-yl)-ethyl]-oxazolidin-2-one]
–	94	93	CC1(C)CC(Nc2ncc(C#Cc3ccccc3)cn2)CCC1O (single isomer, unassigned) [Example 17, (1S,4S or 1R,4R)-2,2-Dimethyl-4-(5-phenylethynyl-pyrimidin-2-ylamino)-cyclohexanol]
40	26	–	C(#Cc1cnc(NC2CCCC2)nc1)c1ccccc1 [Example 1, Cyclopentyl-(5-phenylethynyl-pyrimidin-2-yl)-amine]
46	65	–	C(#Cc1cnc(NC2CCOCC2)nc1)c1ccccc1 [Example 2, (5-Phenylethynyl-pyrimidin-2-yl)-(tetrahydro-pyran-4-yl)-amine]
147	844	–	OC[C@H]1CC[C@H](Nc2ncc(C#Cc3ccccc3)cn2)CC1 [Example 6, trans-[4-(5-Phenylethynyl-pyrimidin-2-ylamino)-cyclohexyl]-methanol]
100	179	–	O[C@H]1CC[C@H](Nc2ncc(C#Cc3ccccc3)cn2)CC1 [Example 7, trans-4-(5-Phenylethynyl-pyrimidin-2-ylamino)-cyclohexanol]
43	43	–	C(#Cc1ccc(NC2CCCC2)nc1)c1ccccc1 [Example 13, Cyclopentyl-(5-phenylethynyl-pyridin-2-yl)-amine]
59	110	–	C(#Cc1ccc(NC2CCOCC2)nc1)c1ccccc1 [Example 14, (5-Phenylethynyl-pyridin-2-yl)-(tetrahydro-pyran-4-yl)-amine]

Emax [1] [%]	EC50 [nM]	Efficacy (%) [1] [%]	Structure (SMILES)
112	52	–	C(#Cc1cnc(NC2CCCCC2)nc1)c1ccccc1 [Example 15, Cyclohexyl-(5-phenylethynyl-pyrimidin-2-yl)-amine]
116	192	–	O[C@H]1CC[C@H](Nc2ncc(C#Cc3ccccc3)cc2F)CC1 [Example 18, trans-4-(3-Fluoro-5-phenylethynyl-pyridin-2-ylamino)-cyclohexanol]
55	75	–	C[C@H]1CC[C@H](Nc2ncc(C#Cc3ccccc3)cn2)CC1 [Example 19, trans-(4-Methyl-cyclohexyl)-(5-phenylethynyl-pyrimidin-2-yl)-amine]
80	206	–	C(#Cc1cnc(NCC2CCOCC2)nc1)c1ccccc1 [Example 20, (5-Phenylethynyl-pyrimidin-2-yl)-(tetrahydro-pyran-4-ylmethyl)-amine]
45	78	–	CC1(CNc2ncc(C#Cc3ccccc3)cn2)COC1 [Example 21, (3-Methyl-oxetan-3-ylmethyl)-(5-phenylethynyl-pyrimidin-2-yl)-amine]
94	110	–	O[C@H]1CC[C@H](Oc2ncc(C#Cc3ccccc3)cn2)CC1 [Example 23, trans-4-(5-Phenylethynyl-pyrimidin-2-yloxy)-cyclohexanol]
88	101	–	CC1(COc2ncc(C#Cc3ccccc3)cn2)COC1 [Example 24, 2-(3-Methyl-oxetan-3-ylmethoxy)-5-phenylethynyl-pyrimidine]
133	291	–	O[C@H]1C[C@H](COc2ncc(C#Cc3ccccc3)cn2)C1 [Example 25, trans-3-(5-Phenylethynyl-pyrimidin-2-yloxymethyl)-cyclobutanol]
117	99	–	OC[C@H]1C[C@H](Oc2ncc(C#Cc3ccccc3)cn2)C1 [Example 26, trans-[3-(5-Phenylethynyl-pyrimidin-2-yloxy)-cyclobutyl]-methanol]
61	45	–	C(#Cc1ccc(OC2CCCCC2)nc1)c1ccccc1 [Example 28, 2-Cyclohexyloxy-5-phenylethynyl-pyridine]
71	135	–	CC1(COc2ncc(C#Cc3ccccc3)cc2F)COC1 [Example 29, 3-Fluoro-2-(3-methyl-oxetan-3-ylmethoxy)-5-phenylethynyl-pyridine]
121	83	–	O=C1COCCN1Cc1ccc(C#Cc2ccccc2)cn1 [Example 30, 4-(5-Phenylethynyl-pyridin-2-ylmethyl)-morpholin-3-one]
122	56	–	O=C1OCCN1Cc1ccc(C#Cc2ccccc2)cn1 [Example 31, 3-(5-Phenylethynyl-pyridin-2-ylmethyl)-oxazolidin-2-one]
145	268	–	O=C1CCCCN1Cc1ccc(C#Cc2ccccc2)cn1 [Example 32, 1-(5-Phenylethynyl-pyridin-2-ylmethyl)-piperidin-2-one]
177	132	–	CC1(C)CC(=O)N(Cc2ccc(C#Cc3ccccc3)cn2)C1 [Example 33, 4,4-Dimethyl-1-(5-phenylethynyl-pyridin-2-ylmethyl)-pyrrolidin-2-one]
119	174	–	O=C1OCCCN1Cc1ccc(C#Cc2ccccc2)cn1 [Example 34, 3-(5-Phenylethynyl-pyridin-2-ylmethyl)-[1,3]oxazinan-2-one]
119	68	–	CN1CCN(Cc2ccc(C#Cc3ccccc3)cn2)C1=O [Example 35, 1-Methyl-3-(5-phenylethynyl-pyridin-2-ylmethyl)-imidazolidin-2-one]
82	84	–	CC1(C)CCC(=O)N1Cc1ccc(C#Cc2ccccc2)cn1 [Example 36, 5,5-Dimethyl-1-(5-phenylethynyl-pyridin-2-ylmethyl)-pyrrolidin-2-one]
